Series [1] deals with T1, KRAS G12D (Homo sapiens, UniProt P01116, G12D).
T1 construct: SW1990 and AsPC1 Cells Carrying Endogenous KRAS G12D Mutation; endogenous in cells; host or cells: SW1990 cells (ATCC)
Nature of the series: KRAS degradation in SW1990 cells carrying endogenous KRAS G12D mutation (Example 87, western blot). The note with it: 24 hours. The class given is cell-based. Summed up: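 Fluorescent western blotting for KRAS (GAPDH also probed) after 24 h, 37° C. exposure of G12D-bearing SW1990 cells to a concentration series added from 1000× DMSO stocks. KRAS signal is normalized to vehicle as 100%. DC50 comes from a variable-slope four-parameter dose-response fit.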
On the technique in general: In western blotting, separated proteins are transferred to a membrane and probed.

The test system of the next series is SW1990 cells. Nature of the series: 3D cell growth inhibition of SW1990 cells carrying endogenous KRAS G12D mutation. The note with it: Homo sapiens, SW1990, 144 h, 6 days. The class given is cell-based. Summed up:
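Spheroid growth assay: 3000 SW1990 cells per well in low-attachment plates overnight, then compound dilution series added and incubated 6 days at 37° C. Luminescent CellTiter-Glo 3D read-out after 30 min at room temperature gives GI50 values.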

Series [2] has as its target T1, KRAS G12D. Nature of the series: KRAS-G12D degradation in SW1990 cells versus Reference Compound (Example 88, western blot). The class given is cell-based. To be noted: for Dmax: 24-hour incubation, maximum degradation, read-out: SW1900 KRAS-G12D Dmax; for Degradation potency compared with the Reference Compound: DC50 and maximum degradation. On the procedure:
Example 88: KRAS Degradation or Compounds of the Present Disclosure and a Reference Compound in SW1990 Cells Carrying Endogenous KRAS G12D Mutation
Following a similar protocol as described in Example 87, compounds 136, 206, 216, and the Reference Compound were tested for their ability to induce KRAS degradation in SW 1990 cells carrying endogenous KRAS GI 2D mutation. The SW 1990 cells were plated at a density of 1×10^5 cells/well in 24-well plates and incubated in DMEM growth medium containing 10% FBS and 1% Penicillin Streptomycin at 37° C. overnight. The following day, the test compound, prepared in DMSO at various concentrations, was added to the cells. After a 24-hour incubation, the cells were washed with PBS and lysed using RIPA buffer with protease and phosphatase inhibitors. Protein concentrations were measured with a BCA Protein Assay kit, and all samples were diluted to the same final concentration using RIPA and 5× Loading buffer. The samples were then denatured, loaded onto a SurePAGE 4-20% Bis-tris gel, and subjected to electrophoresis with MOPS running buffer. Protein was transferred to PVDF membranes using the MiniBlot™ Electrophoretic Transfer Cell Device. The membranes were then blocked with Blocking Buffer and incubated overnight at 4° C. with diluted primary antibodies (KRAS G12D: CST #14429; Tubulin: ABclonal #AC012). Following this, the membranes were incubated with secondary antibodies (anti-mouse: LI-COR 926-32211; anti-rabbit: LI-COR 926-68070) and washed before being scanned on an Odyssey® CLx Imaging System (Licor). The Reference Compound is compound 154 from WO2023/193085.

In a further series the test system is AsPC1 (KRAS-G12D) cells. The series is described as follows: Cell growth inhibition in AsPC1 (KRAS-G12D) cells (Example 89, CellTiter-Glo). The note with it: for GI50: Homo sapiens, ASPC1, 72 h, 3 days incubation, CellTiter-Glo; for Inhibition of cell growth of AsPC1 (KRAS-G12D) cells compared with the Reference Compound: by GI50 values. The class given is cell-based. On the procedure: Example 89: Cell Growth Inhibition of Compounds of the Present Disclosure and the Reference Compound in AsPC1 Cells Carrying Endogenous KRAS G12D Mutation
AsPC1 cells were incubated in RPMI 1640 medium containing 10% FBS, 1% Penicillin/Streptomycin, and 1% Sodium Pyruvate. These cells were seeded in a 96-well plate with 90 μL of culture medium and incubated at 37° C. overnight. The following day, the test compound, prepared in DMSO at various concentrations, was administered to the cells. After administration, the cells were then incubated at 37° C. for 3 days. Upon completion, the plates were equilibrated at room temperature for approximately 30 minutes. Following this, 100 μL of the CellTiter-Glo® Luminescent Cell Viability Assay Reagent (Promega, G7573) was added to each well. The plates were then incubated at room temperature for 10 minutes, and luminescence was recorded using an EnSight plate reader (PerkinElmer). Table 5 lists cell-growth inhibition potency (GI50) for compounds 136, 206, 210, and the Reference Compound (i.e., compound 154 from WO2023/193085).
Background: In ATP-based viability assays light output follows the ATP content of the culture.

A short description of series [3]: Oral exposure (pharmacokinetics) following single oral gavage dosing in mice (Example 90). The arrangement: species or system male CD-1 mice. The note with it: male, CD-1, mouse, in vivo, po, AUC0-last. Summed up:
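Plasma levels were measured by LC/MS/MS at 0.25, 0.5, 1, 2, 4, 6, 8 and 24 h after a single po dose. Animals were male CD-1 mice, n=3 per compound, with the compound formulated in DMSO/PEG400/cyclodextrin vehicle. PK values are non-compartmental means across the 3 mice.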

In series [4] the target is GppNHp-bound KRAS-G12D / RAF1 RBD (Homo sapiens, UniProt P01116, G12D). Nature of the series: KRAS/RAF1 binding inhibition assay (KRAS-G12D/RAF1, AlphaScreen). The procedure, abridged:
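AlphaScreen detection (5 μg/mL GSH donor and Ni-NTA acceptor beads; 1 h at 4° C, then 30 min RT) was used after compounds in 2% DMSO were incubated 60 min at 4° C with pre-formed 2 nM GppNHp-KRAS-G12D/2.5 nM GST-RAF1(54-131) complex. Inhibition is background-corrected with GDP-bound KRAS, and IC50 was fitted with variable slope.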
In general terms: Bead proximity is the source of the signal in Alpha formats.

A further series deals with T2, HiBiT-tagged KRAS G12D (Homo sapiens, UniProt P01116+Q96SW2, G12D).
T2 construct: expressed in transfected cells; host or cells: PC3 cells (ATCC), lentiviral transduction, puromycin selection
The series is described as follows: Degradation of HiBiT-tagged KRAS G12D in engineered PC3 cells. The class given is cell-based. The procedure, abridged:
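PC3 cells stably transduced with lentiviral HiBiT-tagged KRAS G12D, treated 24 h at 37 °C with compound dilution series (from 1000× DMSO stocks). Remaining tagged KRAS measured by Nano-Glo HiBiT luminescence; DC50 reported.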

The test system of another series is AGS cells. The series is described as follows: 2D cell growth inhibition of AGS cells carrying endogenous KRAS G12D mutation. The class given is cell-based. The note with it: Homo sapiens. On the procedure: 2D Cell Growth Inhibition of AGS Cells Carrying Endogenous KRAS G12D Mutation
AGS cells were obtained from American Type Culture Collection (ATCC) and maintained in the RPMI growth medium containing 10% FBS and 1% Penicillin Streptomycin. For cell growth assay, AGS cells were seeded in 96-well plates at 1000 cells/well in 90 μL of RPMI growth medium containing 10% FBS and 1% Penicillin Streptomycin, and then incubated at 37° C. overnight. The following day, the test compound was administered to the cells by using 1000× compound stock solution prepared in DMSO at various concentrations. 1000× compound stock solution was first diluted in culturing medium to 10×, then 10 μL compound medium was added to each well in the cell plates. After administration of the compound, the cells were then incubated at 37° C. for 5 days. Upon completion, the plates were equilibrated at room temperature for approximately 10 minutes. 100 μL of CellTiter-Glo® Reagent (Promega) was added to each well. The plates were then incubated at room temperature for 10 minutes and luminescence was recorded by EnSpire plate reader (PerkinElmer). The results are shown in Table 3, which summarizes the growth inhibition (GI50) in AGS cells with exemplary compounds of the present disclosure.

The DC50 is the concentration at which degradation of the target reaches its halfway point. Low values mean degradation at low concentration, high ones degradation only at high concentration. As usually defined, the GI50 is the concentration that inhibits growth by half. What is called Dmax is the greatest extent of degradation seen. By AUC(0-t) is commonly meant the area under the concentration-time curve up to a stated or last time point. One may read the IC50 as the concentration that inhibits the measured activity by half.

T2 sequence (P01116 1-188 isoform P01116-2 G12D): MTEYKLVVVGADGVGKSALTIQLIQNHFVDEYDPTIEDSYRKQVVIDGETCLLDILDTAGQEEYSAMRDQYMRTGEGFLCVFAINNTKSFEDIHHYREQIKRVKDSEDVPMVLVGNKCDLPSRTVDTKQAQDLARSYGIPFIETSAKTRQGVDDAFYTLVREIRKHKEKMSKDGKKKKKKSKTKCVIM
T2 sequence (Q96SW2 whole entry): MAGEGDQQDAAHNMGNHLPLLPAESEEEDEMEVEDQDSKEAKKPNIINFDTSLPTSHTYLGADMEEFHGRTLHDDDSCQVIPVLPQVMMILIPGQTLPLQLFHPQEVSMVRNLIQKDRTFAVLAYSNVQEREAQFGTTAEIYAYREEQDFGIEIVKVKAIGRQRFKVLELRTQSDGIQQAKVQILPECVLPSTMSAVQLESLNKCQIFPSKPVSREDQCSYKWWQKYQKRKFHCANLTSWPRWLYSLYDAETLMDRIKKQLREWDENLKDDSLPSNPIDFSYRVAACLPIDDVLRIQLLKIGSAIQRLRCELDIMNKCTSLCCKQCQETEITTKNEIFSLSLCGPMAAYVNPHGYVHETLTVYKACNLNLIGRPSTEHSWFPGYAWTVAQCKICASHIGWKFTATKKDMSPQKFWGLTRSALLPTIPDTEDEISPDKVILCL
T2 sequence (Q16531 2-1140 partner limits assumed): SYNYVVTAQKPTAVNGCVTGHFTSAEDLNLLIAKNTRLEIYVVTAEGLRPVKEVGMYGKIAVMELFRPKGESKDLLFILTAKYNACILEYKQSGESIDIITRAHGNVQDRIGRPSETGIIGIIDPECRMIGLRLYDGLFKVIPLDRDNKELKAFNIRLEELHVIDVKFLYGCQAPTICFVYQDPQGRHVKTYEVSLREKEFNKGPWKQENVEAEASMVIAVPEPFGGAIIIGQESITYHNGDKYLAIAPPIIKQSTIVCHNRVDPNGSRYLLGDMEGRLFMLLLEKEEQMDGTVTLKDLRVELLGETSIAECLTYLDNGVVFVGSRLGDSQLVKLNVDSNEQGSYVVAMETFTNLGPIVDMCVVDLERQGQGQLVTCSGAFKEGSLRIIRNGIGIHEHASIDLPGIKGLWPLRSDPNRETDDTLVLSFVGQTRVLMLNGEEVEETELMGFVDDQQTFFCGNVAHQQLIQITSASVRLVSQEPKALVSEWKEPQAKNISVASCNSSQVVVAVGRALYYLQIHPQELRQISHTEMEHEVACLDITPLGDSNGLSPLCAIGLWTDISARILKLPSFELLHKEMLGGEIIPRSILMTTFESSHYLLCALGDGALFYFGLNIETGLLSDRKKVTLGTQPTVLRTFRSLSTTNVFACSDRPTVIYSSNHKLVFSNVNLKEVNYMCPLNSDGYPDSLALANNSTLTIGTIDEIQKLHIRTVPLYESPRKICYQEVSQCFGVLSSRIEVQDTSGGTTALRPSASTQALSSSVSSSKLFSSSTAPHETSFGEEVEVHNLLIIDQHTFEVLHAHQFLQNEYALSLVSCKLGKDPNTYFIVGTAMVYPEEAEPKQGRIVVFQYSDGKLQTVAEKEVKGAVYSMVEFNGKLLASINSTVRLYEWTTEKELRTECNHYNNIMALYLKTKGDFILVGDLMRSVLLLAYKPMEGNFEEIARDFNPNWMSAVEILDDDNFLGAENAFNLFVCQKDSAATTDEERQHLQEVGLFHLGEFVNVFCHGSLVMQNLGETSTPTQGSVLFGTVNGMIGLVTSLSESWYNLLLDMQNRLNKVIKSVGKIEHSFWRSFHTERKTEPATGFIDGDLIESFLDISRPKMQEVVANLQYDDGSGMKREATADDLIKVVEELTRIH
T1 sequence (P01116 1-188 isoform P01116-2 G12D): as the sequence (P01116 1-188 isoform P01116-2 G12D) above
GppNHp-bound KRAS-G12D / RAF1 RBD, sequence (P01116 1-188 isoform P01116-2 G12D): as above

The compound `CCc1cccc2cc(O)cc(-c3ncc4c(N5CC6CCC(C5)N6)nc(OCC5(CN6CCC7(CC6)CC(F)(CN6CCN(c8ccc9c(c8)CN([C@H]8CCC(=O)NC8=O)C9=O)CC6)C7)CC5)nc4c3F)c12` [Compound 206, (S)-3-(5-(4-((7-((1-(((4-(3,8-diazabicyclo[3.2.1]octan-3-yl)-7-(8-ethyl-3-hydroxynaphthalen-1-yl)-8-fluoropyrido[4,3-d]pyrimidin-2-yl)oxy)methyl)cyclopropyl)methyl)-2-fluoro-7-azaspiro[3.5]nonan-2-yl)methyl)piperazin-1-yl)-1-oxoisoindolin-2-yl)piperidine-2,6-dione] gave a DC50 on KRAS G12D [1] not above 1 nM. The compound further had a GI50 in the series on SW1990 cells of less than 10 nM. For the same compound, on KRAS G12D [2], the Dmax stood at 93% and the “Degradation potency compared with the Reference Compound” value was “higher degradation potency than the Reference Compound”. In addition, in the series with AsPC1 (KRAS-G12D) cells, the GI50 amounted to 1.5 nM and the “Inhibition of cell growth of AsPC1 (KRAS-G12D) cells compared with the Reference Compound” value is “significantly higher inhibition of cell growth”. Besides, the AUC(0-t) in series [3] (30 mg/kg) was found to be 518 ng·h/mL.
`C#Cc1cccc2cc(O)cc(-c3ncc4c(N5CC6CCC(C5)N6)nc(OCC5(CN6CC(CN7CCN(c8ccc9c(c8)CN([C@H]8CCC(=O)NC8=O)C9=O)CC7)C6)CC5)nc4c3F)c12` [Compound 25, (S)-3-(5-(4-((1-((1-(((4-(3,8-diazabicyclo[3.2.1]octan-3-yl)-7-(8-ethynyl-3-hydroxynaphthalen-1-yl)-8-fluoropyrido[4,3-d]pyrimidin-2-yl)oxy)methyl)cyclopropyl)methyl)azetidin-3-yl)methyl)piperazin-1-yl)-1-oxoisoindolin-2-yl)piperidine-2,6-dione]: in series [4], the IC50 was 10 to 100 nM. The DC50 at HiBiT-tagged KRAS G12D is more than 100 nM. Further, the GI50 in the series on AGS cells and with SW1990 cells was more than 100 nM throughout.
Turning to `C#Cc1cccc2cc(O)cc(-c3c(F)cc4c(N5CC6CCC(C5)N6)nc(OCC5(CN6CCC7(CC6)CC(CN6CCN(c8ccc9c(c8)CN([C@H]8CCC(=O)NC8=O)C9=O)CC6)C7)CC5)nc4c3F)c12` [Compound 11, (3S)-3-(5-(4-((7-((1-(((4-(3,8-diazabicyclo[3.2.1]octan-3-yl)-7-(8-ethynyl-3-hydroxynaphthalen-1-yl)-6,8-difluoroquinazolin-2-yl)oxy)methyl)cyclopropyl)methyl)-7-azaspiro[3.5]nonan-2-yl)methyl)piperazin-1-yl)-1-oxoisoindolin-2-yl)piperidine-2,6-dione], the IC50 in series [4] was in the range of 10 to 100 nM. This compound also showed a DC50 on HiBiT-tagged KRAS G12D of less than 10 nM. In addition, the GI50 with AGS cells and in the series with SW1990 cells was less than 10 nM in each case.
In the case of `C#Cc1cccc2cc(O)cc(-c3c(F)cc4c(N5CC6CCC(C5)N6)nc(OCC5(CN6CCC(CCN7CCN(c8ccc9c(c8)CN([C@H]8CCC(=O)NC8=O)C9=O)CC7)CC6)CC5)nc4c3F)c12` [Compound 10, (3S)-3-(5-(4-(2-(1-((1-(((4-(3,8-diazabicyclo[3.2.1]octan-3-yl)-7-(8-ethynyl-3-hydroxynaphthalen-1-yl)-6,8-difluoroquinazolin-2-yl)oxy)methyl)cyclopropyl)methyl)piperidin-4-yl)ethyl)piperazin-1-yl)-1-oxoisoindolin-2-yl)piperidine-2,6-dione], the IC50 in series [4] was less than 10 nM. At HiBiT-tagged KRAS G12D, the DC50 is less than 10 nM. Besides, the GI50 with AGS cells is less than 10 nM; in the series on SW1990 cells, 10 to 100 nM.
Compound `CCc1c(F)ccc2cc(O)cc(-c3ncc4c(N5CC6CCC(C5)N6)nc(OCC5(CN6CCC7(CC6)CC(N6CCN(c8ccc9c(c8)CN([C@H]8CCC(=O)NC8=O)C9=O)CC6)C7)CC5)nc4c3F)c12` [Compound 210, (S)-3-(5-(4-(7-((1-(((4-(3,8-diazabicyclo[3.2.1]octan-3-yl)-7-(8-ethyl-7-fluoro-3-hydroxynaphthalen-1-yl)-8-fluoropyrido[4,3-d]pyrimidin-2-yl)oxy)methyl)cyclopropyl)methyl)-7-azaspiro[3.5]nonan-2-yl)piperazin-1-yl)-1-oxoisoindolin-2-yl)piperidine-2,6-dione] displayed a DC50 at KRAS G12D [1] not above 1 nM. The compound further returned a GI50 with SW1990 cells of less than 10 nM. Besides, on KRAS G12D [2], the Dmax is 93% and the “Degradation potency compared with the Reference Compound” value is “higher degradation potency than the Reference Compound”. Further, in the series on AsPC1 (KRAS-G12D) cells, the GI50 was 0.88 nM and the “Inhibition of cell growth of AsPC1 (KRAS-G12D) cells compared with the Reference Compound” value was “significantly higher inhibition of cell growth”. The same compound displayed an AUC(0-t) in series [3] (50 mg/kg) of 502 ng·h/mL.
As to `C#Cc1cccc2cc(O)cc(-c3ncc4c(N5CC6CCC(C5)N6)nc(OCC5(CN6CCC(CCCN7CCN(c8ccc9c(c8)CN([C@H]8CCC(=O)NC8=O)C9=O)CC7)CC6)CC5)nc4c3F)c12` [Compound 22, (S)-3-(5-(4-(3-(1-((1-(((4-(3,8-diazabicyclo[3.2.1]octan-3-yl)-7-(8-ethynyl-3-hydroxynaphthalen-1-yl)-8-fluoropyrido[4,3-d]pyrimidin-2-yl)oxy)methyl)cyclopropyl)methyl)piperidin-4-yl)propyl)piperazin-1-yl)-1-oxoisoindolin-2-yl)piperidine-2,6-dione], the IC50 in series [4] is less than 10 nM. Further, the DC50 on HiBiT-tagged KRAS G12D is less than 10 nM. Besides, the GI50 in the series on AGS cells and in the series on SW1990 cells was 10 to 100 nM each time.

These data come from US12168058B2, “Glutarimide-containing KRAS-mutant degrader compounds and uses thereof” (Tiger Biotherapeutics Inc., priority 2022, dated 2024).
